Assay results as given in patent publication EP4268823A1, “COMPOUND FOR TREATING NEUROINFLAMMATION” (Universitätsklinikum Hamburg-Eppendorf, priority 2022, dated 2023).

How the values were obtained:
[1] = test system: primary neuronal cultures; assay: Cytosolic calcium imaging of glutamate-exposed neuronal cultures; format: cell-based, mouse; conditions: glutamate-exposed neuronal cultures; UNC0642 pre-treated 24 hours; ferrostatin-1 10 min prior to glutamate
Experimental: (§1) For primary cortical cultures pregnant C57BL/6J, or G9afl/fl;Snap25-Cre mice were euthanized. To ensure comparability between genotypes, only embryos from heterozygous breeding's were used. Brainstem tissue of each embryo for genotyping was reserved and cortices were isolated, dissociated and cells were plated at a density of 1 × 10^5 cells per 1 cm^2 on poly-D-lysine-coated wells (5 µM Sigma-Aldrich, cat. no. A-003-M). If not stated otherwise, cells were maintained in neurobasal plus medium (supplemented with B27 plus, penicillin, streptomycin and L-glutamine; Gibco, cat. no. A3582901) at 37°C, 5% CO^2 and a relative humidity of 98%, and treated with 1 µM cytarabine (Sigma-Aldrich, cat. no. BP383) at 1 day in vitro (div) to inhibit glial cell proliferation. If no cytarabine was applied cells were maintained in PNBM medium (supplemented with neural cell survival factor, gentamycin and L-glutamine; Lonza). Throughout, cultures after 14-23 div were used for experiments. G9a inhibitor UNC0642 was used in a concentration of 1 µM and cultures were pre-treated 24 hours before further experimental procedures.
Primary neuronal cultures were seeded on Ibidi 60 µ-Dish Quad (cat. No. 80411) plates. Cultures were infected with an AAV7 containing pAAV-Syn-GCamp6f-WPRE-SV40 (86) (Addgene 100837) at 7-10 div with a 20,000-fold multiplicity of infection (MOI). AAV particles were produced according to the standard procedures of the UKE vector facility. Images were acquired with a confocal LSM 700 laser scanning confocal microscope (Zeiss) every 0.48 seconds with a 20× magnification in an imaging chamber maintaining 37 °C and 5% CO2. Infected cultures were imaged in the respective culture medium. Before applying the indicated chemicals, 5-10 min of baseline activity was first recorded. At the end of the recording, 8 µM ionomycin was applied to induce the maximum cellular calcium response that was used for normalization. For data analysis, mean fluorescence values of every cell were measured using Fiji software (NIH) and normalized to the maximal calcium response after ionomycin challenge. For each cell, mean AUC of the calcium response was calculated using a custom R script.

G9a = molecular target: T1, G9a (Mus musculus, UniProt Q9Z148); assay: H3K9me2 / G9a immunofluorescence staining in primary neuronal cultures; format: cell-based; conditions: for induction of H3K9me2 in response to glutamate: primary cortical cultures, glutamate toxicity
T1 construct: UNC0642 pre-treated primary neuronal cultures compared to respective controls; endogenous in cells; host or cells: primary mouse cortical neuronal cultures (C57BL/6J embryos)
T1 sequence (Q9Z148 1-1263): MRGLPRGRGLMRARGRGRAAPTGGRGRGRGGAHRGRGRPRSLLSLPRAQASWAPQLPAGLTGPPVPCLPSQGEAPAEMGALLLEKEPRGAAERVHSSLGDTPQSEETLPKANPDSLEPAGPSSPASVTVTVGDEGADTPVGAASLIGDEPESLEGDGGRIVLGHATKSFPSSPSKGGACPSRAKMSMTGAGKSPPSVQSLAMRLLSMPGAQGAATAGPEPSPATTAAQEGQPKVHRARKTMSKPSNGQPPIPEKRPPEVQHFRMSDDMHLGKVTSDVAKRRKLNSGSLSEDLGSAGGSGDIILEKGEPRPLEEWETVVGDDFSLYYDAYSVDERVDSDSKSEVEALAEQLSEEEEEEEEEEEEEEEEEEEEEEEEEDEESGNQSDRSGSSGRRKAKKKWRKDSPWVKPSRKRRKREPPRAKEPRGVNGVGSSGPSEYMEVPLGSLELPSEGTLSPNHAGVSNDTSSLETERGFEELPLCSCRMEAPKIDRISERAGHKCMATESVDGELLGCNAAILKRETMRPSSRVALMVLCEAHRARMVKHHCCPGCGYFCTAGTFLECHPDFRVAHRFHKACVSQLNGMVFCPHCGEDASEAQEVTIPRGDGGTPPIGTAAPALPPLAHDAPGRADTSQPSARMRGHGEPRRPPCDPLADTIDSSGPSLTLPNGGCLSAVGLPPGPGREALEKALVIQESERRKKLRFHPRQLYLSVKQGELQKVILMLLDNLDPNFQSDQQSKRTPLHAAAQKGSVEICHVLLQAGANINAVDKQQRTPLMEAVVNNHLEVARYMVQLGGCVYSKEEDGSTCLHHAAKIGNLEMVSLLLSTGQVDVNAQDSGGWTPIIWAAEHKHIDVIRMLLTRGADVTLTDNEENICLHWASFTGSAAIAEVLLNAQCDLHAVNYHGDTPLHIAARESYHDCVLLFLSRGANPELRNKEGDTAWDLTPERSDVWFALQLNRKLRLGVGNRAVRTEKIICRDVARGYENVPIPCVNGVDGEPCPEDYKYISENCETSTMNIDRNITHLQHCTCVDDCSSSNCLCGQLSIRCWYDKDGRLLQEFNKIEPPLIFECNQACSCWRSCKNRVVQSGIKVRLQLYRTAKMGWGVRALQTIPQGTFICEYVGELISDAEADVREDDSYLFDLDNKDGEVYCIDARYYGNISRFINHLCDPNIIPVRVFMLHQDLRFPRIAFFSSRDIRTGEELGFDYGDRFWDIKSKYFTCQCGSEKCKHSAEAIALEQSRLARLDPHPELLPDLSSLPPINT
Experimental: as §1
Immunocytochemistry was performed as described previously (15). HiPSC-neurons and mouse neurons were cultivated on 12 mm diameter cover slips or on 96-well plates suited for confocal microscopy, fixed with 4% paraformaldehyde (PFA), incubated in 10% normal donkey's serum (NDS) containing 0.25% Triton X-100, and subsequently immunolabeling was performed. Immunostainings were analyzed with a Zeiss LSM 700 confocal microscope.

[2] = test system: primary cortical cultures; assay: RealTime-Glo cell viability assay, glutamate excitotoxicity; format: cell-based, mouse; conditions: 20 µM glutamate-stimulated primary cortical cultures; UNC0642 1 µM pre-treated 24 hours
Experimental: as §1, with “G9a inhibitor UNC0642 was used in a concentration of 1 µM and cultures were pre-treated 24 hours before further experimental procedures.” left out
RealTime-Glo (Promega, cat. no. G9711) MT cell viability substrate and NanoLuc Enzyme was mixed together, added to neuronal cultures and incubated for 5 hours for equilibration of luminescence signal before respective treatments were applied. Luminescence was acquired with a Spark 10M multimode microplate reader (Tecan) at 37°C and 5% CO2 every 30 min over a total time period of 24 hours. […]

Compound | toxic calcium accumulation (glutamate-induced calcium overload) [1] | induction of H3K9me2 in response to glutamate (G9a) | further results
NCCC[C@](N)(C(=O)O)C(F)F [DFMO, alpha-difluoro-methylornithine] | rescued glutamate-induced calcium overload |  | 
COC1=C(OC)C(=O)C(C/C=C(\C)CC/C=C(\C)CC/C=C(\C)CC/C=C(\C)CC/C=C(\C)CC/C=C(\C)CC/C=C(\C)CC/C=C(\C)CC/C=C(\C)CCC=C(C)C)=C(C)C1=O [coenzyme Q10] | rescued glutamate-induced calcium overload |  | 
O=C(O)CN(CCOCCOCCN(CC(=O)O)CC(=O)O)CC(=O)O [EGTA] |  | potently suppressed the induction of H3K9me2 | 
CCOC(=O)c1ccc(NC2CCCCC2)c(N)c1 [ferrostatin-1] | rescued glutamate-induced calcium overload |  | 
COC(=O)c1ccc(C2c3[nH]c4ccccc4c3CC(C(=O)OC)N2C(=O)CCl)cc1 (stereo not shown) [RSL3] |  |  | H3K9me2 immunofluorescence after cell death induction (G9a; primary cortical neurons, inducer alone vs. control): significant upregulation of H3K9me2
NC(CCCP(=O)(O)O)C(=O)O (stereo not shown) [AP5] |  | potently suppressed the induction of H3K9me2 | cell viability [2]: rescued cellular survival
